From PubChem BioAssay (NCI)
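96-well plates; 48 h exposure; 5 concentrations. Endpoints by linear interpolation between flanking doses. Not reached: highest tested concentration assigned. At the TGI there is no net growth.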

Key:
Assay in all cases: NCI anticancer screen, dose series, 48 h
A498 renal = system: A498 renal
PC-3 prostate = system: PC-3 prostate
NCI-H522 lung = system: NCI-H522 lung
HOP-92 NSCLC = system: HOP-92 NSCLC
OVCAR-5 ovarian = system: OVCAR-5 ovarian
MDA-N = system: MDA-N
UO-31 renal = system: UO-31 renal
COLO 205 colon = system: COLO 205 colon
HOP-62 NSCLC = system: HOP-62 NSCLC
SN12C renal = system: SN12C renal
NCI/ADR-RES ovarian = system: NCI/ADR-RES ovarian
U251 CNS = system: U251 CNS
UACC-62 melanoma = system: UACC-62 melanoma
SK-MEL-2 melanoma = system: SK-MEL-2 melanoma
SNB-19 CNS = system: SNB-19 CNS
SK-OV-3 ovarian = system: SK-OV-3 ovarian
IGROV1 ovarian = system: IGROV1 ovarian
BT-549 breast = system: BT-549 breast
ACHN renal = system: ACHN renal
LOX IMVI melanoma = system: LOX IMVI melanoma
T-47D breast = system: T-47D breast
MCF7 breast = system: MCF7 breast
MDA-MB-435 = system: MDA-MB-435
HCC-2998 colon = system: HCC-2998 colon
786-0 renal = system: 786-0 renal
OVCAR-8 ovarian = system: OVCAR-8 ovarian
OVCAR-4 ovarian = system: OVCAR-4 ovarian
MOLT-4 leukemia = system: MOLT-4 leukemia
KM12 colon = system: KM12 colon
HCT-15 colon = system: HCT-15 colon
SK-MEL-5 melanoma = system: SK-MEL-5 melanoma
EKVX NSCLC = system: EKVX NSCLC
SW-620 colon = system: SW-620 colon
HS 578T breast = system: HS 578T breast
OVCAR-3 ovarian = system: OVCAR-3 ovarian
M14 melanoma = system: M14 melanoma
UACC-257 melanoma = system: UACC-257 melanoma
NCI-H23 lung = system: NCI-H23 lung
HCT-116 colon = system: HCT-116 colon
K-562 leukemia = system: K-562 leukemia
MALME-3M melanoma = system: MALME-3M melanoma
SK-MEL-28 melanoma = system: SK-MEL-28 melanoma
HL-60(TB) leukemia = system: HL-60(TB) leukemia
SNB-75 CNS = system: SNB-75 CNS
SF-268 CNS = system: SF-268 CNS
RPMI-8226 leukemia = system: RPMI-8226 leukemia
SR leukemia = system: SR leukemia
RXF 393 renal = system: RXF 393 renal
HT29 colon = system: HT29 colon
SF-295 CNS = system: SF-295 CNS
CCRF-CEM leukemia = system: CCRF-CEM leukemia
TK-10 renal = system: TK-10 renal
NCI-H460 lung = system: NCI-H460 lung
CAKI-1 renal = system: CAKI-1 renal
MDA-MB-231 breast = system: MDA-MB-231 breast
DU-145 prostate = system: DU-145 prostate
SF-539 CNS = system: SF-539 CNS
NCI-H226 lung = system: NCI-H226 lung
A549 NSCLC = system: A549 NSCLC
DLD-1 colon = system: DLD-1 colon
M19-MEL melanoma = system: M19-MEL melanoma
SNB-78 CNS = system: SNB-78 CNS
XF 498 CNS = system: XF 498 CNS
DMS 114 small cell lung = system: DMS 114 small cell lung
KM20L2 colon = system: KM20L2 colon
HOP-18 NSCLC = system: HOP-18 NSCLC
LXFL 529 NSCLC = system: LXFL 529 NSCLC
DMS 273 small cell lung = system: DMS 273 small cell lung

Measured: TGI

Cc1cc2c(cc1C)C(=O)c1ncccc1C2=O
90 µM: SF-539 CNS
25 µM: SR leukemia
52.9 µM: MALME-3M melanoma
36.2 µM: MDA-N
23.2 µM: SK-MEL-5 melanoma
61.1 µM: HCT-116 colon
50.9 µM: NCI-H23 lung
34.4 µM: MDA-MB-435
30.6 µM: HL-60(TB) leukemia
67.1 µM: MDA-MB-231 breast
74.2 µM: MOLT-4 leukemia
46.3 µM: UACC-257 melanoma
9.65 µM: OVCAR-3 ovarian
82.4 µM: COLO 205 colon
43.9 µM: NCI-H522 lung
70.8 µM: NCI/ADR-RES ovarian
not listed: DLD-1 colon | M19-MEL melanoma | SNB-78 CNS | XF 498 CNS | DMS 114 small cell lung | KM20L2 colon | HOP-18 NSCLC | LXFL 529 NSCLC | DMS 273 small cell lung
> 100 µM: all other assays above

NC(N)=NS(=O)(=O)c1ccc(Nc2c3ccccc3nc3c(C(=O)N4CCN(CCO)CC4)ccc(Cl)c23)cc1
not listed: PC-3 prostate | NCI-H522 lung | MDA-N | NCI/ADR-RES ovarian | BT-549 breast | LOX IMVI melanoma | T-47D breast | MCF7 breast | MDA-MB-435 | 786-0 renal | EKVX NSCLC | SW-620 colon | HS 578T breast | SR leukemia | MDA-MB-231 breast | DU-145 prostate | HOP-18 NSCLC | LXFL 529 NSCLC | DMS 273 small cell lung
> 100 µM: all other assays above

C=CCOC1=C2CC[C@H](O)[C@@]2(C)CCC1=O
not listed: PC-3 prostate | MDA-N | NCI/ADR-RES ovarian | SK-MEL-2 melanoma | BT-549 breast | T-47D breast | MCF7 breast | MDA-MB-435 | HS 578T breast | NCI-H23 lung | K-562 leukemia | MDA-MB-231 breast | DU-145 prostate | XF 498 CNS
> 100 µM: all other assays above
